In patent US10681909B2, “Herbicidal triazoles” (FMC Corporation, priority 2014, dated 2020):

Key:
crabgrass, large = assay: Test A preemergence; assay type: in vivo, Digitaria sanguinalis; settings: Digitaria sanguinalis, pre-emergence, 240 h, 0 to 100 scale (0 no effect, 100 complete control), read-out: Plant response rating, Crabgrass, Large
Procedure, shortened: (§1)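 Loam/sand soil mix; compound in non-phytotoxic solvent + surfactant. Pre: directed soil spray right after planting seed. Post: potted plants 2–10 cm, 1–2 leaf stage, sprayed with same formulation.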

corn = assay: Test A preemergence; assay type: in vivo, Zea mays; settings: Zea mays, pre-emergence, 240 h, 0 to 100 scale (0 no effect, 100 complete control)
Procedure, shortened: as §1

galium = assay: Test C preemergence; assay type: in vivo, Galium aparine; settings: for Plant response rating (scale of 0 to 100 where 0 is no effect and 100 is complete control): Galium, preemergence; for Galium plant response rating (0 to 100): Preemergence, visual rating after 13 to 15 d
Procedure, shortened: (§2)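 Plants are treated postemergence at the 1- to 4-leaf stage (2 to 18 cm), grown in sphagnum peat/vermiculite medium; preemergence treatment is applied to seed planted in loam soil with sand. Both use test chemical in a non-phytotoxic solvent mixture with surfactant.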

foxtail, giant = assay: Test C preemergence; assay type: in vivo, Setaria faberii; settings: for Plant response rating (scale of 0 to 100 where 0 is no effect and 100 is complete control): Foxtail, Giant, preemergence; for Foxtail, Giant plant response rating (0 to 100): Preemergence, visual rating after 13 to 15 d
Procedure, shortened: as §2

morningglory = assay: Test C preemergence; assay type: in vivo, Ipomoea coccinea; settings: for Plant response rating (scale of 0 to 100 where 0 is no effect and 100 is complete control): Morningglory, preemergence; for Morningglory plant response rating (0 to 100): Preemergence, visual rating after 13 to 15 d
Procedure, shortened: as §2

soybean = assay: Test C preemergence; assay type: in vivo, Glycine max; settings: for Soybean plant response rating (0 to 100): Preemergence, visual rating after 13 to 15 d; for Plant response rating (scale of 0 to 100 where 0 is no effect and 100 is complete control): Soybean, preemergence, 250 g ai/ha
Procedure, shortened: as §2

bromegrass, down [1] = assay: Test D preemergence; assay type: in vivo, Bromus tectorum; settings: for Plant response rating: Bromegrass, Down: scale 0 to 100
Source text: (§3) Seeds of plant species selected from bluegrass (annual bluegrass, Poa annua), blackgrass (Alopecurus myosuroides), canarygrass (Phalaris minor), chickweed (common chickweed, Stellaria media), galium (catchweed bedstraw, Galium aparine), bromegrass, down (downy bromegrass, Bromus tectorum), Russian thistle (Salsola kali), field poppy (Papaver rhoeas), field violet (Viola arvensis), foxtail, green (green foxtail, Setaria viridis), deadnettle (henbit deadnettle, Lamium amplexicaule), ryegrass, Ital. (Italian ryegrass, Lolium multiflorum), kochia (Kochia scoparia), lambsquarters (Chenopodium album), oilseed rape (Brassica napus), pigweed (Amaranthus retroflexus), chamomile (scentless chamomile, Matricaria inodora), speedwell (bird's-eye speedwell, Veronica persica), barley, spring (spring barley, Hordeum vulgare), wheat, spring (spring wheat, Triticum aestivum), buckwheat, wild (wild buckwheat, Polygonum convolvulus), wild mustard (Sinapis arvensis), oat, wild (wild oat, Avena fatua), radish, wild (wild radish, Raphanus raphanistrum), […]), barley, winter (winter barley, Hordeum vulgare), and wheat, winter (winter wheat, Triticum aestivum) were planted into a silt loam soil and treated preemergence with test chemicals formulated in a non-phytotoxic solvent mixture which included a surfactant. At the same time, these species were planted in pots containing Sunshine Redi-Earth® planting medium comprising spaghnum peat moss, vermiculite, starter nutrients and dolomitic limestone and treated with postemergence applications of the test chemicals formulated in the same manner. Plants ranged in height from 2 to 18 cm (1- to 4-leaf stage). Treated plants and controls were maintained in a controlled growth environment for 14 to 21 d after which time all species were compared to controls and visually evaluated. […] A dash (-) response means no test result.

lambsquarters = assay: Test D preemergence; assay type: in vivo, Chenopodium album; settings: for Plant response rating: Lambsquarters: scale 0 to 100
Source text: as §3

chamomile = assay: Test D preemergence; assay type: in vivo, Matricaria inodora; settings: for Plant response rating: Chamomile: scale 0 to 100
Source text: as §3

speedwell = assay: Test D preemergence; assay type: in vivo, Veronica persica; settings: for Plant response rating: Speedwell: scale 0 to 100
Source text: as §3

bluegrass = assay: Test D postemergence; assay type: in vivo, Poa annua; settings: scale 0 to 100
Source text: as §3

bromegrass, down [2] = assay: Test D postemergence; assay type: in vivo, Bromus tectorum; settings: scale 0 to 100
Source text: as §3

ryegrass, Ital. = assay: Test D postemergence; assay type: in vivo, Lolium multiflorum; settings: scale 0 to 100
Source text: as §3

[3] = 16 g ai/ha, 0 is no effect, 100 is complete control

SMILES: CCc1nc(-c2ccc(C(F)(F)F)cc2)nn1Cc1ccnc(C(F)(F)F)c1 [Compound 1, 4-[[5-ethyl-3-[4-(trifluoromethyl)phenyl]-1H-1,2,4-triazol-1-yl]methyl]-2-(trifluoromethyl)pyridine]
- pest or weed control at 125 g/ha (crabgrass, large; 125 g ai/ha): 100%
- pest or weed control at 500 g/ha (crabgrass, large; 500 g ai/ha, approx. 10 d): 100%
- Corn plant response rating (crop injury, 0 = no effect, 100 = complete kill) at 125 g/ha (corn; 125 g ai/ha): 10%
- Corn plant response rating (crop injury, 0 = no effect, 100 = complete kill) at 500 g/ha (corn; 500 g ai/ha, approx. 10 d): 20%
- Plant response rating (scale of 0 to 100 where 0 is no effect and 100 is complete control) (galium; 125 g ai/ha): 100
- Plant response rating (scale of 0 to 100 where 0 is no effect and 100 is complete control) (galium; 250 g ai/ha): 100
- Galium plant response rating (0 to 100) (galium; 31 g ai/ha): 70
- Galium plant response rating (0 to 100) (galium; 62 g ai/ha): 98
- Plant response rating (scale of 0 to 100 where 0 is no effect and 100 is complete control) (foxtail, giant; 125 g ai/ha): 100
- Plant response rating (scale of 0 to 100 where 0 is no effect and 100 is complete control) (foxtail, giant; 250 g ai/ha): 100
- Foxtail, Giant plant response rating (0 to 100) (foxtail, giant; 31 g ai/ha): 98
- Foxtail, Giant plant response rating (0 to 100) (foxtail, giant; 62 g ai/ha): 98
- Plant response rating (scale of 0 to 100 where 0 is no effect and 100 is complete control) (morningglory; 125 g ai/ha): 55
- Plant response rating (scale of 0 to 100 where 0 is no effect and 100 is complete control) (morningglory; 250 g ai/ha): 90
- Morningglory plant response rating (0 to 100) (morningglory; 31 g ai/ha): 20
- Morningglory plant response rating (0 to 100) (morningglory; 62 g ai/ha): 55
- Soybean plant response rating (0 to 100) (soybean; 31 g ai/ha): 0
- Soybean plant response rating (0 to 100) (soybean; 62 g ai/ha): 5
- Plant response rating (scale of 0 to 100 where 0 is no effect and 100 is complete control) (soybean): 20
- Plant response rating: Bromegrass, Down (bromegrass, down [1]; 31 g ai/ha): 0
- Plant response rating: Bromegrass, Down (bromegrass, down [1]; 62 g ai/ha): 0
- Plant response rating: Bromegrass, Down (bromegrass, down [1]; 125 g ai/ha): 10
- Plant response rating: Bromegrass, Down (bromegrass, down [1]; 250 g ai/ha): 10
- Plant response rating: Lambsquarters (lambsquarters; 62 g ai/ha): 100
- Plant response rating: Lambsquarters (lambsquarters; 125 g ai/ha): 100
- Plant response rating: Lambsquarters (lambsquarters; 250 g ai/ha): 100
- Plant response rating: Chamomile (chamomile; 31 g ai/ha): 0
- Plant response rating: Chamomile (chamomile; 62 g ai/ha): 20
- Plant response rating: Chamomile (chamomile; 125 g ai/ha): 80
- Plant response rating: Chamomile (chamomile; 250 g ai/ha): 100
- Plant response rating: Speedwell (speedwell; 62 g ai/ha): 100
- Plant response rating: Speedwell (speedwell; 125 g ai/ha): 100
- Plant response rating: Speedwell (speedwell; 250 g ai/ha): 100
- Plant response rating: Bluegrass (bluegrass; 31 g ai/ha): 10
- Plant response rating: Bluegrass (bluegrass; 62 g ai/ha): 20
- Plant response rating: Bluegrass (bluegrass; 125 g ai/ha): 35
- Plant response rating: Bluegrass (bluegrass; 250 g ai/ha): 55
- Plant response rating: Bromegrass, Down (bromegrass, down [2]; 31 g ai/ha): 15
- Plant response rating: Bromegrass, Down (bromegrass, down [2]; 62 g ai/ha): 20
- Plant response rating: Bromegrass, Down (bromegrass, down [2]; 125 g ai/ha): 25
- Plant response rating: Bromegrass, Down (bromegrass, down [2]; 250 g ai/ha): 35
- Plant response rating: Ryegrass, Ital. (ryegrass, Ital.; 31 g ai/ha): 10
- Plant response rating: Ryegrass, Ital. (ryegrass, Ital.; 62 g ai/ha): 15
- Plant response rating: Ryegrass, Ital. (ryegrass, Ital.; 125 g ai/ha): 20
- Plant response rating: Ryegrass, Ital. (ryegrass, Ital.; 250 g ai/ha): 35

SMILES: CCOc1nc(-c2ccc(C(F)(F)F)cc2)nn1Cc1ccnc(C(F)(F)F)c1 [Compound 35, 4-[[5-ethoxy-3-[4-(trifluoromethyl)phenyl]-1H-1,2,4-triazole-1-yl]methyl]-2-(trifluoromethyl)pyridine]
- Plant response rating (scale of 0 to 100 where 0 is no effect and 100 is complete control) (galium; 125 g ai/ha): 90
- Plant response rating (scale of 0 to 100 where 0 is no effect and 100 is complete control) (galium; 250 g ai/ha): 90
- Galium plant response rating (0 to 100) (galium; 31 g ai/ha): 50
- Galium plant response rating (0 to 100) (galium; 62 g ai/ha): 80
- Plant response rating (scale of 0 to 100 where 0 is no effect and 100 is complete control) (foxtail, giant; 125 g ai/ha): 100
- Plant response rating (scale of 0 to 100 where 0 is no effect and 100 is complete control) (foxtail, giant; 250 g ai/ha): 100
- Foxtail, Giant plant response rating (0 to 100) (foxtail, giant; 31 g ai/ha): 98
- Foxtail, Giant plant response rating (0 to 100) (foxtail, giant; 62 g ai/ha): 100
- Plant response rating (scale of 0 to 100 where 0 is no effect and 100 is complete control) (morningglory; 125 g ai/ha): 80
- Plant response rating (scale of 0 to 100 where 0 is no effect and 100 is complete control) (morningglory; 250 g ai/ha): 90
- Morningglory plant response rating (0 to 100) (morningglory; 31 g ai/ha): 70
- Morningglory plant response rating (0 to 100) (morningglory; 62 g ai/ha): 60
- Soybean plant response rating (0 to 100) (soybean; 31 g ai/ha): 20
- Soybean plant response rating (0 to 100) (soybean; 62 g ai/ha): 15
- Plant response rating (scale of 0 to 100 where 0 is no effect and 100 is complete control) (soybean): 65
- Plant response rating (0 to 100), Bromegrass, Down (bromegrass, down [1]; [3]): 15
- Plant response rating: Bromegrass, Down (bromegrass, down [1]; 31 g ai/ha): 40
- Plant response rating: Bromegrass, Down (bromegrass, down [1]; 62 g ai/ha): 60
- Plant response rating: Bromegrass, Down (bromegrass, down [1]; 125 g ai/ha): 75
- Plant response rating (0 to 100), Lambsquarters (lambsquarters; [3]): 85
- Plant response rating: Lambsquarters (lambsquarters; 62 g ai/ha): 95
- Plant response rating: Lambsquarters (lambsquarters; 125 g ai/ha): 100
- Plant response rating (0 to 100), Chamomile (chamomile; [3]): 95
- Plant response rating: Chamomile (chamomile; 31 g ai/ha): 100
- Plant response rating: Chamomile (chamomile; 62 g ai/ha): 100
- Plant response rating: Chamomile (chamomile; 125 g ai/ha): 100
- Plant response rating (0 to 100), Speedwell (speedwell; [3]): 100
- Plant response rating: Speedwell (speedwell; 62 g ai/ha): 100
- Plant response rating: Speedwell (speedwell; 125 g ai/ha): 100
- Plant response rating: Bluegrass (bluegrass; 16 g ai/ha): 45
- Plant response rating: Bluegrass (bluegrass; 31 g ai/ha): 70
- Plant response rating: Bluegrass (bluegrass; 62 g ai/ha): 75
- Plant response rating: Bluegrass (bluegrass; 125 g ai/ha): 95
- Plant response rating: Bromegrass, Down (bromegrass, down [2]; 16 g ai/ha): 40
- Plant response rating: Bromegrass, Down (bromegrass, down [2]; 31 g ai/ha): 55
- Plant response rating: Bromegrass, Down (bromegrass, down [2]; 62 g ai/ha): 60
- Plant response rating: Bromegrass, Down (bromegrass, down [2]; 125 g ai/ha): 75
- Plant response rating: Ryegrass, Ital. (ryegrass, Ital.; 16 g ai/ha): 30
- Plant response rating: Ryegrass, Ital. (ryegrass, Ital.; 31 g ai/ha): 60
- Plant response rating: Ryegrass, Ital. (ryegrass, Ital.; 62 g ai/ha): 65
- Plant response rating: Ryegrass, Ital. (ryegrass, Ital.; 125 g ai/ha): 75
